One compound from PMC4359714 (Naunyn-Schmiedeberg's Archives of Pharmacology, 2015) can be followed below.

One series has as its system SNL rats. Kind of series: SNL-induced tactile allodynia (von Frey, up-down method). Format: in vivo, rat. The settings on record: 100 mg/kg p.o.; p > 0.05 vs vehicle (4.4 ± 1.2 g). How it is done:
SNL surgery was performed using aseptic surgical techniques and a stereomicroscope (Kim and Chung [1992]). Spinal nerve injury was caused by ligating the left L5 and L6 spinal nerves, with special care to avoid damage to the L4 spinal nerve or surrounding area. More specifically, under gaseous anesthesia with a mixture of O2 and isoflurane (3 % for induction and 2 % for maintenance), skin was excised and the longissimus lumborum muscle, part of articular processes (L4-S1), and the fascia above L6 spinal nerve were carefully removed. […]
Behavioral testing Two weeks post surgery, mechanical sensitivity was measured by determining the median 50 % foot withdrawal threshold for von Frey filaments using the up-down method (Chaplan et al. [1994]). […] To avoid possible reflex responses, only abrupt withdrawal of the foot accompanied by pain indicative behaviors (namely paw flinching, shaking, or licking for more than 2 s) was recorded as a response. […]
In vivo IC50 and IC90 estimates using WDS model data were determined by fitting a sigmoidal dose-response curve to individual animal number of WDS versus resulting plasma concentration. Behavioral and electrophysiological data are expressed as mean ± standard error of the mean (S.E.M.). Results were analyzed using one-way analysis of variance (ANOVA) with Dunnett’s multiple-comparisons post-hoc test for significance relative to vehicle. […]

A short description of series [1]: Plasma protein binding by ultracentrifugation. Format: in vitro ADME. Particulars: male, rat plasma. How it is done:
The unbound fraction in plasma was determined by ultracentrifugation.

A further series has as its target T1, rat TRPV3 (Rattus norvegicus, UniProt Q4QYD9).
T1 construct: expressed in transfected cells; host or cells: CHO, T-REx tetracycline-inducible system (Invitrogen), co-transfected with aequorin
T1 sequence (Q4QYD9 1-791): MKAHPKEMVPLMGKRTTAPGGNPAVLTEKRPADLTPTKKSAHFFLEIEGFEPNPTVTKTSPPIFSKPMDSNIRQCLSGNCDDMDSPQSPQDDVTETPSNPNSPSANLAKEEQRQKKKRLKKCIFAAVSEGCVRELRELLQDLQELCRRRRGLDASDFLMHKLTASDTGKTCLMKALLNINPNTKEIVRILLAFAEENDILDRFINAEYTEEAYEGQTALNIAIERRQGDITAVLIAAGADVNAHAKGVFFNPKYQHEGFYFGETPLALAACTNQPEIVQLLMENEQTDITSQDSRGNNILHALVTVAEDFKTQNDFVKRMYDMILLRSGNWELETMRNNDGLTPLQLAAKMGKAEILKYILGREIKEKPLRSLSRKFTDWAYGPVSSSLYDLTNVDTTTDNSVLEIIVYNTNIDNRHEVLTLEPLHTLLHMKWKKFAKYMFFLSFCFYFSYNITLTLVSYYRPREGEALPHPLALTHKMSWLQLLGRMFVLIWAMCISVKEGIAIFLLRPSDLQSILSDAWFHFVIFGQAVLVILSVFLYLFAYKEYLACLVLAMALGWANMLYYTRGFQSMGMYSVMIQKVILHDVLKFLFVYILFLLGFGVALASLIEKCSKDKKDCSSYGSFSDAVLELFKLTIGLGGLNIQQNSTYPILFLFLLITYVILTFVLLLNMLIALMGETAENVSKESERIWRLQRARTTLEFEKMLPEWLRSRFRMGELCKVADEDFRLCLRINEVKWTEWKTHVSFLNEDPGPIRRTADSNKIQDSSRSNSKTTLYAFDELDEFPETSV
Kind of series: Luminescence (aequorin) readout of intracellular calcium, CHO cells expressing rat TRPV3, 2-APB activation. Format: cell-based. Particulars: 200 uM 2-APB, read-out: rTRPV3 IC50. The source says: Stable Chinese hamster ovary (CHO) cell lines expressing rat TRPA1, rat TRPM8, rat TRPV3, and human TRPV4 were generated using the tetracycline-inducible T-REx™ expression system from Invitrogen (Carlsbad, CA) and a stable CHO cell line expressing rat TRPV1 was generated using a constitutive expression system (Klionsky et al. [2007]). To enable a luminescence readout based on intracellular increase in calcium (Le Poul et al. [2002]), each cell line was also co-transfected with pcDNA3.1 plasmid containing jelly fish aequorin cDNA. Twenty-four hours before the assay, cells were seeded in 96-well plates and all TRP channel expression, except for TRPV1, was induced with 0.5 ug/mL tetracycline. […] Luminescence was measured by a CCD camera-based FLASH-luminometer built by Amgen, Inc. The following agonists were used to activate TRP channels: 0.5 uM capsaicin for TRPV1, 80 uM allyl isothiocyanate (AITC) for TRPA1, 1 uM icilin or cold buffer (12 °C) for TRPM8, 200 uM aminoethoxydiphenyl borate (2-APB) for TRPV3, and 1 uM 4α-phorbol 12,13-didecanoate (4α-PDD) for TRPV4. Antagonist IC50 values were calculated using GraphPad Prism 4.01 (GraphPad Software Inc, San Diego, CA).
On the technique in general: A change in cytosolic calcium serves as a functional read-out for many receptors and channels.

A word on the fraction unbound: it is the share of the substance not bound to proteins or other matrix. Higher therefore signals much free substance. A word on the IC50: it is the concentration at which inhibition is half-maximal. On to `C[C@H](NC(=O)N1CCc2cccnc2[C@H]1c1ccc(C(F)(F)F)cc1)C(F)(F)F` [AMG2850, (R)-8-(4-(trifluoromethyl)phenyl)-N-((S)-1,1,1-trifluoropropan-2-yl)-5,6-dihydro-1,7-naphthyridine-7(8H)-carboxamide], for which the “tactile threshold (von Frey), SNL model” value with SNL rats was determined as 5.8 ± 1.3 g. Also, in series [1], the fraction unbound at 15 min, 5 ug/mL was 0.119. The IC50 on rat TRPV3 was > 25 µM.
